Where a name gives a salt, the structure may show the parent alone.
How the values were obtained:
[1] = molecular target: T1, catalytic domain of human stromelysin (Hsln) (Homo sapiens, UniProt P08254); assay: Fluorometric MCA-peptide hydrolysis assay, stromelysin (Hsln); format: biochemical; details: apparent Ki; 10 μM MCA peptide substrate, 37° C., pH 7.5; read-out: Hsln (Ki,app)
T1 construct: The catalytic domain of human stromelysin (Hsln) was obtained by expression and purification of a C-terminally truncated prostromelysin-1; made in house; host or cells: E. coli BL21
T1 sequence (P08254 100-272 limits assumed): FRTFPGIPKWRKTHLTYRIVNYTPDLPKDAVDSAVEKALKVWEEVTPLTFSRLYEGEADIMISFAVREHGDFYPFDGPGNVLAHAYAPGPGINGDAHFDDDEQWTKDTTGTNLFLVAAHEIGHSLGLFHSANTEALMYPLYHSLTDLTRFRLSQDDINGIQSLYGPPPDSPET
Method: The catalytic domain of human stromelysin (Hsln) was obtained by expression and purification of a C-terminally truncated prostromelysin-1 from E. coli host BL21 (see Marcy et al. Biochem., 1991, 30, 6476). The subsequent activation of the mature form (Hsln) was completed with 2 mM APMA for 1 hour at 37° C., followed by separation using a sizing column.
(§1) Assays were performed in assay buffer (50 mM Tricine pH 7.5, 200 mM sodium chloride, 10 mM calcium chloride, 0.5 mM zinc acetate containing 2% dimethyl sulfoxide (DMSO)) once the substrate and inhibitor were diluted into it. Stock solutions of inhibitors were prepared in 100% DMSO. Stock solutions of the substrate were prepared in 100% DMSO at a concentration of 6 mM.
(§2) The assay method was based on the hydrolysis of MCA-Pro-Leu-Gly-Leu-DPA-Ala-Arg-NH2 (American Peptide Co.) at 37° C. (see Knight, C. G. et al., FEBS, 1992, 296, 263-266). The fluorescence changes were monitored with a Perkin-Elmer LS-50B fluorimeter using an excitation wavelength of 328 nm and an emission wavelength of 393 nm. The substrate concentration used in the assays was 10 μM. The inhibitor was diluted into the assays from a solution in 100% DMSO, and controls substituted an equal volume of DMSO so that the final DMSO concentration from inhibitor and substrate dilution in all assays was 2%. […] Proper determination of steady-state rates of substrate cleavage required assay lengths of 60 minutes to allow for complete equilibration of the enzyme-inhibitor complex.
(§3) The Km for the MCA peptide substrate with the matrix metalloproteinases is quite high and exceeds its solubility under assay conditions. Consequently, the apparent Ki (Ki,app) was determined to describe the strength of inhibition. However, in this case, Ki,app would be essentially equal to Ki since [S]<<Km. For the determination of Ki,app, the concentration of the inhibitor was varied at a constant and low concentration of substrate and the steady-state rates of fluorescence change determined. In most cases absorptive quench due to the presence of ligand was not observed. For slow-binding inhibitors, onset of inhibition curves were collected for at least 45 minutes so that equilibrium was established. Steady-state rates of fluorescence change were obtained by fitting a curve to an equation for a single exponential decay containing a linear phase. The fitted value of the linear phase was taken as the steady-state rate. The steady-state rates were fitted to the Michaelis equation describing competitive inhibition by non-linear methods. Data resulting from tight-binding inhibition was analyzed, and Ki,app determined by fitting the data to the tight-binding equation of Morrison (Biochem. Biophys. Acta, vol. 185, pp. 269-286 (1969)) by non-linear methods.

Human matrilysin (Matr) = molecular target: T2, Human matrilysin (Matr) (Homo sapiens, UniProt P09237); assay: Fluorometric MCA-peptide hydrolysis assay, matrilysin (Matr); format: biochemical; details: apparent Ki; 10 μM MCA peptide substrate, 37° C., pH 7.5; read-out: Matr (Ki,app)
T2 construct: the catalytic domain was liberated by treatment with 2 mM APMA at 37° C. for 2 hours; ubiquitin (cleaved yes); made in house; host or cells: E. coli
T2 sequence (P09237 95-267): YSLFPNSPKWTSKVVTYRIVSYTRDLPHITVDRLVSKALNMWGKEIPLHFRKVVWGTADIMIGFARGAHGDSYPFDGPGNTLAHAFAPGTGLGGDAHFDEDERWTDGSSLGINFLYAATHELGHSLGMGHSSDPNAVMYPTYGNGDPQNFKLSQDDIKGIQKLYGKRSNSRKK
Method: Human matrilysin (Matr) was expressed in E. coli as a fusion protein with ubiquitin. After purification of the matrilysin/ubiquitin fusion from inclusion bodies, the catalytic domain was liberated by treatment with 2 mM APMA at 37° C. for 2 hours. Final purification was complete using copper chelate chromatography.
as §1, §2, §3

[2] = molecular target: T3, human progelatinase A (GelA), catalytic and fibronectin-like portion (Homo sapiens, UniProt P08253); assay: Fluorometric MCA-peptide hydrolysis assay, gelatinase A (GelA); format: biochemical; details: apparent Ki; 10 μM MCA peptide substrate, 37° C., pH 7.5
T3 construct: The catalytic and fibronectin-like portion of human progelatinase A (GelA) was expressed as a fusion protein with ubiquitin; ubiquitin; made in house; host or cells: E. coli
T3 sequence (P08253 110-465 limits assumed): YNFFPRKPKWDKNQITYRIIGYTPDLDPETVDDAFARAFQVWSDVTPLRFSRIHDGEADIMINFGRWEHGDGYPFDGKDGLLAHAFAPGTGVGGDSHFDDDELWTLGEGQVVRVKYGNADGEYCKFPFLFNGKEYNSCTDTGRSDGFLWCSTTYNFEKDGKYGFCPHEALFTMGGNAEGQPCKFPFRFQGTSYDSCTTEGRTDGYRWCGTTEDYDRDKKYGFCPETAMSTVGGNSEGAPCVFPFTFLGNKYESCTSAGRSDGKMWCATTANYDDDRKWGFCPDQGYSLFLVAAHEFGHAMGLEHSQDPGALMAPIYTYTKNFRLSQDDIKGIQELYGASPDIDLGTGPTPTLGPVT
Method: The catalytic and fibronectin-like portion of human progelatinase A (GelA) was expressed as a fusion protein with ubiquitin in E. Coli. Assays were carried out on autocatalytically activated material.
as §1, §2, §3

[3] = molecular target: T4, human collagenase-3 (Coll3) (Homo sapiens, UniProt P45452); assay: Fluorometric MCA-peptide hydrolysis assay, collagenase-3 (Coll3); format: biochemical; details: apparent Ki; 10 μM MCA peptide substrate, 37° C., pH 7.5; read-out: Coll3 (Ki,app)
T4 construct: the catalytic domain was liberated by treatment with 2 mM APMA at room temperature overnight; ubiquitin (N, cleaved yes); made in house; host or cells: E. coli
Method: The propeptide and catalytic domain of human collagenase-3 (Coll3) was expressed in E. coli as an N-terminal fusion protein with ubiquitin. After purification of the fusion from inclusion bodies, the catalytic domain was liberated by treatment with 2 mM APMA at room temperature overnight. Final purification was completed using copper chelate chromatography.
as §1, §2
as §3, with “In most cases absorptive quench due to the presence of ligand was not observed.” left out

CCC[C@H](C(=O)O)[C@H](C(=O)N[C@H](CO)C(C)(C)C)n1ccc(-c2ccc(-c3ccc(C#N)cc3)cc2)c1 [Example 10(c), 2S-[1R-(3-(4′-Cyanobiphenyl-4-yl)-1H-pyrrol-1-yl)-1-(2,2-dimethyl-1(S)-(hydroxymethyl)propylcarbamoyl)-methyl]-pentanoic Acid]
Ki [1]: 40 nM
Ki (Human matrilysin (Matr)): 2180 nM
GelA (Ki,app) [2]: 22 nM
Ki [3]: 50 nM
melting point: 130 to 132 °C

O=C(C[C@H](C(=O)N[C@H]1Cc2cn(c3ccccc23)CCCCCCNC1=O)n1cccc1)NO [Example 8(c), N ^4Hydroxy-N^1-(9-oxo-1,8-diaza-tricyclo[10.6.1.0^13,18]nonadeca-12(19),13,15,17-tetraen-10S-yl)-3(R)-1H-(pyrrol-1-yl)succinamide]
melting point: 158 to 165 °C

N#Cc1ccc(-c2ccc(-c3ccn([C@H](CC(=O)O)C(=O)N[C@H](CO)Cc4ccccc4)c3)cc2)cc1 [Example 4(a), N-(1(S)-Benzyl-2-hydroxyethyl)-3(R)-[3-(4′-cyanobiphenyl-4-yl)-1H-pyrrol-1-yl]succinamic Acid]
Ki [1]: 30 nM
Ki (Human matrilysin (Matr)): 5200 nM
GelA (Ki,app) [2]: 1.3 nM
Ki [3]: 2.7 nM
melting point: 189 to 192 °C

CCCc1ccc(-c2ccn([C@H](CC(=O)O)C(=O)N[C@H](C(=O)NC)C(C)(C)C)c2)cc1 [Example 1(j), N-[2,2-Dimethyl-1(S)-(methylcarbamoyl)propyl]-3(R)-[3-(4-propylphenyl)-1H-pyrrol-1-yl]succinamic Acid]
Ki [1]: 133 nM
GelA (Ki,app) [2]: 1.43 nM
Ki [3]: 9.43 nM
melting point: 104 to 106 °C

CC(C)C[C@H](NC(=O)[C@@H](CC(=O)O)c1ccn(-c2ccc(-c3ccc(C#N)cc3)cc2)c1)c1ncc[nH]1 [Example 14(c), 3(S)-[1-(4′-Cyanobiphenyl-4-yl)-1H-pyrrol-3-yl]-N-[1(S)-(1H-imidazol-2-yl)-3-methylbutyl]succinamic Acid]
Ki [1]: 17.7 nM
GelA (Ki,app) [2]: 0.044 nM
melting point: 206 to 210 °C (dec.)

COC[C@H](Cc1ccccc1)NC(=O)[C@@H](CC(=O)O)n1ccc(-c2ccc(-c3ccccc3)cc2)c1 [Example 1(f), N-(1(S)-Benzyl-2-methoxyethyl)-3(R)-[3-(biphenyl-4-yl)-1H-pyrrol-1-yl]succinamic Acid]
Ki [1]: 331 nM
Ki (Human matrilysin (Matr)): 1000 nM
GelA (Ki,app) [2]: 93 nM
Ki [3]: 542 nM
melting point: 247 °C

CCC[C@H](C(=O)O)[C@H](C(=O)N[C@H](CO)Cc1ccccc1)n1ccc(-c2ccc(-c3ccccc3)cc2)c1 [Example 10(a), 2S-[1R-(1(S)-Benzyl-2-hydroxyethylcarbamoyl)-(3-biphenyl-4-yl-1H-pyrrol-1-yl)-methyl]-pentanoic Acid]
Ki (Human matrilysin (Matr)): 617 nM
GelA (Ki,app) [2]: 3.3 nM
Ki [3]: 50 nM
melting point: 179 to 181 °C (dec.)

CC(C)(O)C(CO)NC(=O)[C@@H](CC(=O)O)n1ccc(-c2ccc(-c3ccccc3)cc2)c1 (stereo in doubt) [Example 1(i), 3(R)-[3-(Biphenyl-4-yl)-1H-pyrrol-1-yl]-N-[2-hydroxy-1(S)-(hydroxymethyl)-2-methylpropyl]succinamic Acid]
Ki [1]: 113 nM
GelA (Ki,app) [2]: 8 nM
Ki [3]: 89.6 nM
melting point: 150 to 152 °C

CC(C)(C)[C@H](NC(=O)C(CC(=O)O)c1ccsc1)C(=O)Nc1ccncc1 (stereo in doubt) [Example 17(c), N-[2,2-Dimethyl-1(S)-(pyridin-4-ylcarbamoyl)-propyl]-3(R)-thien-3-yl-succinamic Acid]
Ki [1]: 935 nM
Ki (Human matrilysin (Matr)): 156 nM
GelA (Ki,app) [2]: 157 nM
melting point: 205 °C (dec.)

CC(C)(C)[C@H](NC(=O)[C@@H](CC(=O)O)n1ccc(-c2ccc(-c3ccc(C#N)cc3)cc2)c1)C(=O)Nc1ccncc1 (as salt: salt) [Example 5(d), 3(R)-[3-(4′-Cyanobiphenyl-4-yl)-1H-pyrrol-1-yl]-N-[2,2-dimethyl-1(S)-(pyridin-4-ylcarbamoyl)propyl]succinamic Acid Formate Salt]
melting point: 134 to 136 °C

O=C(O)C[C@H](C(=O)N[C@H](CO)Cc1ccccc1)n1cc(-c2ccc(-c3ccccc3)cc2)cn1 [Example 16, N-(1(S)-Benzyl-2-hydroxyethyl)-3(R)-[4-(biphenyl-4-yl)-pyrazol-1-yl]succinamic Acid]
Ki [1]: 1500 nM
Ki (Human matrilysin (Matr)): 63000 nM
GelA (Ki,app) [2]: 81 nM
melting point: 154 to 159 °C

CC(C)(C)[C@@H](CO)NC(=O)[C@@H](CC(=O)O)n1ccc(-c2ccc(-c3ccc(C(N)=O)cc3)cc2)c1 [Example 4(c), 3(R)-[3-(4′-Carbamoylbiphenyl-4-yl)-1H-pyrrol-1-yl]-N-(1(S)-hydroxymethyl-2,2-dimethyl-propyl)succinamic Acid]
Ki [1]: 64 nM
Ki (Human matrilysin (Matr)): 2530 nM
GelA (Ki,app) [2]: 7.2 nM
melting point: 192 to 194 °C

CC(C)C[C@H](NC(=O)[C@@H](CC(=O)O)n1ccc(-c2ccc(-c3ccncc3)cc2)c1)c1ncc[nH]1.O=CO [Example 7(c), N-[1(S)-(1H-Imidazol-2-yl)-3-methylbutyl]-3(R)-[3-[4-(pyridin-4-yl)phenyl]-1H-pyrrol-1-yl]succinamic Acid Formate Salt]
Ki [1]: 26 nM
Ki (Human matrilysin (Matr)): 5330 nM
GelA (Ki,app) [2]: 0.055 nM
Ki [3]: 1.3 nM

CC(C)C[C@H](NC(=O)[C@@H](CC(=O)O)n1ccc(-c2ccc(-c3ccccc3)cc2)c1)C(C)O (mixture of isomers) [Example 3]
Ki [1]: 150 nM
Ki (Human matrilysin (Matr)): 1250 nM
GelA (Ki,app) [2]: 58 nM
Ki [3]: 180 nM

CC(C)(C)[C@@H](CO)NC(=O)C(CC(=O)O)n1cnc(-c2ccc(-c3ccccc3)cc2)c1 (mixture of isomers) [Example 18(b), 3(RS)-(3-Biphenyl-4-yl-1H-imidazol-1-yl)-N-(2,2-dimethyl-1(S)-hydroxymethylpropyl)succinamic Acid]
Ki [1]: 3000 nM
Ki (Human matrilysin (Matr)): > 100000 nM
melting point: 145 to 150 °C
